These results are taken from ChEMBL document CHEMBL1144516, “Synthesis and biological activities of analogs of D-glucosyl-l-tyrosine, a humoral factor that stimulates transcription of the acyl-CoA binding protein in the pheromone gland of the Silkmoth, Bombyx mori” (Bioorg Med Chem, 2007).

Calls of active or inactive are those of the source. The rule behind the calls is not given here.

The assay deals with Bombyx mori. As to the kind of experiment: Stimulation of transcription of acyl-CoA binding protein in pheromone gland of Silkmoth P50 at 0.2 mg after 18 hrs. In kind it is functional, organism-based.
`N[C@H](Cc1ccc(OC2O[C@H](CO)[C@@H](O)[C@H](O)[C@H]2O)cc1)C(=O)O` (stereo not given in full): the outcome was inactive.
With `N[C@@H](Cc1ccc(O[C@@H]2O[C@H](CO)[C@H](O)[C@H](O)[C@H]2O)cc1)C(=O)O`, the result was Active.
With `N[C@H](Cc1ccc(O[C@H]2O[C@@H](CO)[C@H](O)[C@@H](O)[C@@H]2O)cc1)C(=O)O`, the result was inactive.
Consider `N[C@H](Cc1ccc(O[C@@H]2O[C@H](CO)[C@H](O)[C@H](O)[C@H]2O)cc1)C(=O)O`, for which the result was inactive.
The result for `N[C@@H](Cc1ccc(O[C@H]2O[C@@H](CO)[C@H](O)[C@@H](O)[C@@H]2O)cc1)C(=O)O` reads “inactive”.
